Details: 283.15 K, Liquid, Vibrating tube method

CCCCC(=O)OCC(COC(=O)CCCC)(COC(=O)CCCC)COC(=O)CCCC [pentaerythritol tetrapentanoate]
Details | mass density [kg/m3]
2596 kPa | 1028.7
2607.6 kPa | 1028.6
2619.2 kPa | 1028.8
2631.2 kPa | 1028.6
2645.8 kPa | 1028.6
2657.4 kPa | 1028.6
2670 kPa | 1028.7
2684.8 kPa | 1028.6
2697.1 kPa | 1028.5
2708.7 kPa | 1028.6
2721.4 kPa | 1028.6
2736.6 kPa | 1028.8
2749.1 kPa | 1028.6
2762 kPa | 1028.6
2777.4 kPa | 1028.7
2790.4 kPa | 1028.7
2803.7 kPa | 1028.6
2819.5 kPa | 1028.6
2833.1 kPa | 1028.7
2846.4 kPa | 1028.7
2860.3 kPa | 1028.7
2874 kPa | 1028.8
2891 kPa | 1028.7
2904.7 kPa | 1028.6
2918.7 kPa | 1028.8
2935.2 kPa | 1028.8
2949.4 kPa | 1028.8
2963.8 kPa | 1028.8
2978.5 kPa | 1028.7
2995.7 kPa | 1028.9
3010.3 kPa | 1028.8
3025.5 kPa | 1028.8
3042.9 kPa | 1028.9
3057.8 kPa | 1029
3073.4 kPa | 1028.9
3091.7 kPa | 1028.8
3107 kPa | 1028.9
3122.3 kPa | 1028.9
3138 kPa | 1029
3156.6 kPa | 1029
3172.7 kPa | 1028.9
3191.8 kPa | 1028.9
3207.9 kPa | 1029
3224.7 kPa | 1028.9
3241.2 kPa | 1029
3261.6 kPa | 1029
3276.9 kPa | 1028.9
3297 kPa | 1028.9
3314 kPa | 1029
3334.8 kPa | 1029.1
3352.3 kPa | 1029
3369.8 kPa | 1029
3387.8 kPa | 1029
3405.8 kPa | 1029.1
3427.2 kPa | 1029.1
3444.8 kPa | 1029.1
3463.4 kPa | 1029.2
3485.6 kPa | 1029
3505 kPa | 1029.1
3523.9 kPa | 1029.1
3543.1 kPa | 1029.2
3562.2 kPa | 1029.1
3585.6 kPa | 1029.1
3605.1 kPa | 1029.2
3625.3 kPa | 1029.2
3645 kPa | 1029.4
3665.5 kPa | 1029.2
3689.4 kPa | 1029.2
3709.5 kPa | 1029.3
3729.7 kPa | 1029.2
3754.5 kPa | 1029.2
3775.8 kPa | 1029.2
3797 kPa | 1029.3
3821.9 kPa | 1029.4
3843.6 kPa | 1029.4
3865.6 kPa | 1029.3
3887.1 kPa | 1029.4
3913.4 kPa | 1029.2
3935.4 kPa | 1029.2
3957.4 kPa | 1029.4
3984.4 kPa | 1029.5
4007.1 kPa | 1029.3
4030 kPa | 1029.5
4053.3 kPa | 1029.5
4081.1 kPa | 1029.5
4104.4 kPa | 1029.6
4128.5 kPa | 1029.5
4157.3 kPa | 1029.6
4181.3 kPa | 1029.5
4205.4 kPa | 1029.5
4234.9 kPa | 1029.5
4260 kPa | 1029.6
4284.7 kPa | 1029.5
4314.9 kPa | 1029.7
4340 kPa | 1029.7
4366.5 kPa | 1029.7
4393.7 kPa | 1029.7
4426 kPa | 1029.7
4453.1 kPa | 1029.7
4480.4 kPa | 1029.8
4507.9 kPa | 1029.8
4542.4 kPa | 1029.9
4572 kPa | 1029.7
4602.1 kPa | 1029.7
4632.8 kPa | 1029.7
4669.8 kPa | 1029.8
4701.7 kPa | 1030
4733 kPa | 1029.9
4763.3 kPa | 1029.9
4792.9 kPa | 1029.8
4797.4 kPa | 1029.9
4798.1 kPa | 1029.9
4800.3 kPa | 1029.9
4801 kPa | 1029.8
4803.1 kPa | 1030
4805.2 kPa | 1029.9
4805.4 kPa | 1030
4807.6 kPa | 1029.9
4808.8 kPa | 1029.9
4810.7 kPa | 1029.9
4811.8 kPa | 1029.9
4812.5 kPa | 1029.9
4813.1 kPa | 1029.9
4813.3 kPa | 1030
4813.7 kPa | 1029.9
4814 kPa | 1030
4814.2 kPa | 1029.9
4814.4 kPa | 1029.9
4819 kPa | 1030
4836.2 kPa | 1029.9
4855.7 kPa | 1029.9
4877.5 kPa | 1029.9
4899 kPa | 1030
4924.1 kPa | 1030
4945.9 kPa | 1029.9
4969.3 kPa | 1030
4990.9 kPa | 1030
5013.2 kPa | 1030
5040.4 kPa | 1030
5062.7 kPa | 1030
5085.9 kPa | 1030
5113.1 kPa | 1030.1
5136.1 kPa | 1030.1
5159.8 kPa | 1030
5188.5 kPa | 1030.1
5213.2 kPa | 1030.2
5238.3 kPa | 1030.2
5263.4 kPa | 1030
5289.6 kPa | 1030.3
5314.9 kPa | 1030.1
5344.8 kPa | 1030.1
5370.4 kPa | 1030.2
5395.8 kPa | 1030.2
5426.8 kPa | 1030.1
5453.3 kPa | 1030.3
5479.6 kPa | 1030.3
5512.1 kPa | 1030.3
5539.8 kPa | 1030.4
5567.4 kPa | 1030.3
5595.3 kPa | 1030.4

Reference: the NIST ThermoML archive (doi:10.1021/je060271a)
